Test results published in ChEMBL document CHEMBL3817739, “Synthesis and cytotoxic evaluation of several oleanolic aciduracil/thymine conjugates” (Medchemcomm, 2016).

Assays:
[1] = Cytotoxicity against human PC3 cells assessed as inhibition of cell proliferation after 72 hrs by MTT assay; type: functional, cell-based, PC-3; conditions: Homo sapiens, PC-3, 72 h; read-out: IC50
[2] = system: MCF7; experiment: Cytotoxicity against human MCF7 cells assessed as inhibition of cell proliferation after 72 hrs by MTT assay; type: functional, cell-based; conditions: MCF7, 72 h
[3] = system: HepG2; experiment: Cytotoxicity against human HepG2 cells assessed as inhibition of cell proliferation after 72 hrs by MTT assay; type: functional, cell-based; conditions: HepG2, 72 h
[4] = system: A549; experiment: Cytotoxicity against human A549 cells assessed as inhibition of cell proliferation after 72 hrs by MTT assay; type: functional, cell-based; conditions: A549, 72 h
[5] = Cytotoxicity against human BGC823 cells assessed as inhibition of cell proliferation after 72 hrs by MTT assay; type: functional, cell-based; conditions: BGC-823, 72 h

With `O=c1[nH]cc(F)c(=O)[nH]1` [FLUOROURACIL] the IC50 [1] was 12.2 µM, the IC50 [2] was 21.5 µM and the IC50 [3] was 55.7 µM. For the same molecule, the IC50 [4] was 22.6 µM and the IC50 [5] was 8.82 µM.

`Cc1cn(CCCCCCOC(=O)[C@]23CCC(C)(C)C[C@H]2C2=CC[C@@H]4[C@@]5(C)CC[C@H](O)C(C)(C)[C@@H]5CC[C@@]4(C)[C@]2(C)CC3)c(=O)[nH]c1=O` showed an IC50 [1] of 8.37 µM, an IC50 [2] of 4.01 µM and an IC50 [3] of 5.09 µM. The IC50 [4] was < 0.1 µM and the IC50 [5] was 0.37 µM.

Molecule `Cc1cn(CCOC(=O)[C@]23CCC(C)(C)C[C@H]2C2=CC[C@@H]4[C@@]5(C)CC[C@H](O)C(C)(C)[C@@H]5CC[C@@]4(C)[C@]2(C)CC3)c(=O)[nH]c1=O` has an IC50 [1] of 1.93 µM, an IC50 [2] of 10.2 µM and an IC50 [3] of 5.41 µM. It also gave an IC50 [4] of 35.1 µM and an IC50 [5] of 0.16 µM.

Molecule `CC1(C)CC[C@]2(C(=O)OCCn3ccc(=O)[nH]c3=O)CC[C@]3(C)C(=CC[C@@H]4[C@@]5(C)CC[C@H](O)C(C)(C)[C@@H]5CC[C@]43C)[C@@H]2C1` has an IC50 [1] of 9.61 µM, an IC50 [2] of 45.9 µM and an IC50 [3] of 15.2 µM. It also gave an IC50 [4] of 0.36 µM and an IC50 [5] of 0.37 µM.

In the case of `Cc1cn(CCOC(=O)[C@]23CCC(C)(C)C[C@H]2C2=CC[C@@H]4[C@@]5(C)CC[C@H](O)C(C)(C)[C@@H]5CC[C@@]4(C)[C@]2(C)CC3)c(=O)n(CCOC(=O)[C@]23CCC(C)(C)C[C@H]2C2=CC[C@@H]4[C@@]5(C)CC[C@H](O)C(C)(C)[C@@H]5CC[C@@]4(C)[C@]2(C)CC3)c1=O`, the IC50 [1] is reported as 1.16 µM, the IC50 [2] is reported as 3.02 µM and the IC50 [3] is reported as 5.19 µM. For the same molecule, the IC50 [4] was 0.79 µM and the IC50 [5] was 1.89 µM.

Work on `Cc1cn(CCCCCCCCOC(=O)[C@]23CCC(C)(C)C[C@H]2C2=CC[C@@H]4[C@@]5(C)CC[C@H](O)C(C)(C)[C@@H]5CC[C@@]4(C)[C@]2(C)CC3)c(=O)[nH]c1=O` yielded an IC50 [1] of 0.23 µM, an IC50 [2] of 16.1 µM and an IC50 [3] of 8.72 µM. The IC50 [4] was 1.11 µM and the IC50 [5] was 0.29 µM.

`CC1(C)CC[C@]2(C(=O)OCCCCn3ccc(=O)[nH]c3=O)CC[C@]3(C)C(=CC[C@@H]4[C@@]5(C)CC[C@H](O)C(C)(C)[C@@H]5CC[C@]43C)[C@@H]2C1` gave an IC50 [1] of 1.45 µM, an IC50 [2] of 70.4 µM and an IC50 [3] of 4.21 µM. The IC50 [4] was 0.11 µM and the IC50 [5] was 0.93 µM.

`CC1(C)CC[C@]2(C(=O)O)CC[C@]3(C)C(=CC[C@@H]4[C@@]5(C)CC[C@H](O)C(C)(C)[C@@H]5CC[C@]43C)[C@@H]2C1` [OLEANOLIC_ACID] gave an IC50 [1] of 72.7 µM, an IC50 [2] of 12.6 µM and an IC50 [3] of 15.9 µM. The IC50 [4] was 16.3 µM and the IC50 [5] was 23.7 µM.

For `CC1(C)CC[C@]2(C(=O)OCCCCCCCCn3ccc(=O)[nH]c3=O)CC[C@]3(C)C(=CC[C@@H]4[C@@]5(C)CC[C@H](O)C(C)(C)[C@@H]5CC[C@]43C)[C@@H]2C1`, the IC50 [1] was 20.9 µM, the IC50 [2] was < 0.1 µM and the IC50 [3] was 1.05 µM. The IC50 [4] was 8.47 µM and the IC50 [5] was 14.9 µM.

`CC1(C)CC[C@]2(C(=O)OCCCCn3ccc(=O)n(CCCCOC(=O)[C@]45CCC(C)(C)C[C@H]4C4=CC[C@@H]6[C@@]7(C)CC[C@H](O)C(C)(C)[C@@H]7CC[C@@]6(C)[C@]4(C)CC5)c3=O)CC[C@]3(C)C(=CC[C@@H]4[C@@]5(C)CC[C@H](O)C(C)(C)[C@@H]5CC[C@]43C)[C@@H]2C1` gave an IC50 [1] of 4.79 µM, an IC50 [2] of 130 µM and an IC50 [3] of 3.95 µM. It also gave an IC50 [4] of 4.09 µM and an IC50 [5] of 0.15 µM.

With `CC1(C)CC[C@]2(C(=O)OCCCCCCn3ccc(=O)n(CCCCCCOC(=O)[C@]45CCC(C)(C)C[C@H]4C4=CC[C@@H]6[C@@]7(C)CC[C@H](O)C(C)(C)[C@@H]7CC[C@@]6(C)[C@]4(C)CC5)c3=O)CC[C@]3(C)C(=CC[C@@H]4[C@@]5(C)CC[C@H](O)C(C)(C)[C@@H]5CC[C@]43C)[C@@H]2C1` the IC50 [1] was 15.5 µM, the IC50 [2] was < 0.1 µM and the IC50 [3] was 0.99 µM. The IC50 [4] was 6.98 µM and the IC50 [5] was 0.68 µM.
